# In patent US20250171459A1, “2-METHYL-4',5'-DIHYDROSPIRO[PIPERIDINE-4,7'-THIENO[2,3-C]PYRAN] DERIVATIVES AS INHIBITORS OF APOL1 AND METHODS OF USING SAME” (Vertex Pharmaceuticals Incorporated, priority 2022, published 2025):
# Target: T1, APOL1 (Homo sapiens, UniProt O14791)
# T1 sequence (O14791 1-398 S342G/I384M): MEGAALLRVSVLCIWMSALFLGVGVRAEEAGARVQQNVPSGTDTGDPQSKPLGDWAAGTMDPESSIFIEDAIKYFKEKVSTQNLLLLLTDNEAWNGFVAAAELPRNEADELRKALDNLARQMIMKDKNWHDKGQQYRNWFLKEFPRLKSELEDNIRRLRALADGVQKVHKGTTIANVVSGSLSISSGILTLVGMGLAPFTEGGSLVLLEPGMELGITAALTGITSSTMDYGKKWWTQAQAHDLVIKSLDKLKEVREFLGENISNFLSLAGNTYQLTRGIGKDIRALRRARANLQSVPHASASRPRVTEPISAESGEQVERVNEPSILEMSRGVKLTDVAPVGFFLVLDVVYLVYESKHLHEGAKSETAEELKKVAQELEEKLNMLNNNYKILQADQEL
# Assay: MultiTox-Fluor Multiplex Cytotoxicity Assay in tet-inducible APOL1 T-REx-HEK293 cells (cell rescue, ratio of dead to live cells)
# Assay type: cell-based
# Conditions: tet-inducible transgenic APOL1 T-REx-HEK293 cell lines, 50 ng/mL tet, 24 hours; read-out: IP50 (i.e., IC50 for cell proliferation)
# In short: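 T-REx-HEK293 cells with tet-inducible APOL1 were treated with compound (10 μM top, 10-point 3-fold dilution, duplicate) plus 50 ng/mL tetracycline for 24 h at 37° C, in DMEM with 2% tet-free FBS. MultiTox-Fluor protease signals gave a dead/live ratio, normalized to no tet (100% viability) and tet alone (0%).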
row,Structure (SMILES),IC50 [µM]
1,"CCc1cc2c(s1)CCOC21CCN(Cc2cnn(C)c2)C(C)(C)C1 (stereo not drawn) [Compound 498, 2-ethyl-2′,2′-dimethyl-1′-[(1-methylpyrazol-4-yl)methyl]spiro[6,7-dihydrothieno[3,2-c]pyran-4,4′-piperidine]]",0.5 to 1
2,Cc1cc2c(s1)CCO[C@@]21CCN(CC(O)C(N)=O)[C@@H](C)C1 (stereo partly drawn) [Compound 501],0.1 to 0.5
3,Cc1cc2c(s1)CCO[C@@]21CCN(CC(O)C(N)=O)[C@@H](C)C1 (stereo partly drawn) [Compound 502],0.1 to 0.5
4,Cc1cc2c(s1)CCO[C@@]21CCN(CC(O)C(N)=O)[C@@H](C)C1 (stereo partly drawn) [Compound 503],0.1 to 0.5
5,Cc1cc2c(s1)CCO[C@@]21CCN(C2CCCC2O)[C@@H](C)C1 (stereo partly drawn) [Compound 504],0.1 to 0.5
6,Cc1cc2c(s1)CCO[C@@]21CCN(C2CCCC2O)[C@@H](C)C1 (stereo partly drawn) [Compound 505],< 0.1
7,C[C@H]1C[C@@]2(CCN1CCO)OCCc1sc(Cl)cc12 [Compound 506],0.1 to 0.5
8,C[C@H](O)CN1CC[C@]2(C[C@@H]1C)OCCc1sc(Cl)cc12 [Compound 507],0.1 to 0.5
9,"C[C@H]1C[C@@]2(CCN1C[C@H](O)C(N)=O)OCCc1sc(Cl)cc12 [Compound 508, (2S)-3-[(2′S,4R)-2-chloro-2′-methyl-spiro[6,7-dihydrothieno[3,2-c]pyran-4,4′-piperidine]-1′-yl]-2-hydroxy-propanamide]",0.1 to 0.5
10,"C[C@H]1C[C@@]2(CCN1C[C@@H](O)C(N)=O)OCCc1sc(Cl)cc12 [Compound 509, (2R)-3-[(2′S,4R)-2-chloro-2′-methyl-spiro[6,7-dihydrothieno[3,2-c]pyran-4,4′-piperidine]-1′-yl]-2-hydroxy-propanamide]",0.1 to 0.5
11,"Cc1cc2c(s1)CCO[C@@]21CCN(Cc2cn(CCS(C)(=O)=O)nn2)[C@@H](C)C1 [Compound 510, (2′S)-2,2′-dimethyl-1′-[[1-(2-methylsulfonylethyl)triazol-4-yl]methyl]spiro[6,7-dihydrothieno[3,2-c]pyran-4,4′-piperidine]]",< 0.1
12,C[C@H]1C[C@@]2(CCN1Cc1cn(CCS(C)(=O)=O)nn1)OCCc1sc(Cl)cc12 [Compound 511],< 0.1
13,Cc1sc2c(c1C)[C@]1(CCN(Cc3cn(CCS(C)(=O)=O)nn3)[C@@H](C)C1)OCC2 [Compound 512],0.1 to 0.5
14,CCCc1cc2c(s1)CCO[C@@]21CCN(Cc2cn(CCS(C)(=O)=O)nn2)[C@@H](C)C1 [Compound 513],0.1 to 0.5
15,CC(C)Cc1cc2c(s1)CCO[C@@]21CCN(Cc2cn(CCS(C)(=O)=O)nn2)[C@@H](C)C1 [Compound 514],0.1 to 0.5
16,"C[C@H]1C[C@@]2(CCN1Cc1cnc(NC(C)(C)CO)nc1)OCCc1sc(Cl)cc12 [Compound 515, 2-[[5-[[(2′S,4R)-2-chloro-2′-methyl-spiro[6,7-dihydrothieno[3,2-c]pyran-4,4′-piperidine]-1′-yl]methyl]pyrimidin-2-yl]amino]-2-methyl-propan-1-ol]",< 0.1
17,"Cc1cc2c(s1)CCO[C@]21CCN(Cc2cnn(CCS(C)(=O)=O)c2)[C@@H](C)C1 [Compound 516, (2′S,4S)-2,2′-dimethyl-1′-[[1-(2-methylsulfonylethyl)pyrazol-4-yl]methyl]spiro[6,7-dihydrothieno[3,2-c]pyran-4,4′-piperidine]]",< 0.1
18,Cc1cc2c(s1)CCO[C@@]21CCN(Cc2cnn(CCS(C)(=O)=O)c2)[C@H](C)C1 [Compound 517],0.1 to 0.5
19,C[C@H]1C[C@@]2(CCN1Cc1cnn(CCS(C)(=O)=O)c1)OCCc1sc(Cl)cc12 [Compound 518],< 0.1
20,"Cc1sc2c(c1C)[C@]1(CCN(Cc3cnn(C)c3)[C@@H](C)C1)OCC2 [Compound 519, (2′S,4R)-2,2′,3-trimethyl-1′-[(1-methylpyrazol-4-yl)methyl]spiro[6,7-dihydrothieno[3,2-c]pyran-4,4′-piperidine]]",< 0.1
21,CCCc1cc2c(s1)CCO[C@@]21CCN(Cc2cnn(C)c2)[C@@H](C)C1 [Compound 520],< 0.1
22,CC(C)Cc1cc2c(s1)CCO[C@@]21CCN(Cc2cnn(C)c2)[C@@H](C)C1 [Compound 521],< 0.1
23,"C[C@H]1C[C@@]2(CCN1Cc1cn(CCS(C)(=O)=O)nn1)OCCc1sc(Br)cc12 [Compound 522, (2′S,4R)-2-bromo-2′-methyl-1′-[[1-(2-methylsulfonylethyl)triazol-4-yl]methyl]spiro[6,7-dihydrothieno[3,2-c]pyran-4,4′-piperidine]]",< 0.1

row,Structure (SMILES),IC50 [µM]
1,"C[C@H]1C[C@@]2(CCN1Cc1cnn(CCS(C)(=O)=O)c1)OCCc1sc(CC(F)F)cc12 [Compound 523, (2′S,4R)-2-(2,2-difluoroethyl)-2′-methyl-1′-[[1-(2-methylsulfonylethyl)pyrazol-4-yl]methyl]spiro[6,7-dihydrothieno[3,2-c]pyran-4,4′-piperidine]]",< 0.1
2,"C[C@H]1C[C@@]2(CCN1Cc1cn(CCS(C)(=O)=O)nn1)OCCc1sc(C(F)F)cc12 [Compound 524, (2′S,4R)-2-(difluoromethyl)-2′-methyl-1′-[[1-(2-methylsulfonylethyl)triazol-4-yl]methyl]spiro[6,7-dihydrothieno[3,2-c]pyran-4,4′-piperidine]]",< 0.1
3,"C[C@H]1C[C@@]2(CCN1Cc1cn(CCS(C)(=O)=O)nn1)OCCc1sc(C(F)(F)F)cc12 [Compound 525, (2′S,4R)-2′-methyl-1′-[[1-(2-methylsulfonylethyl)triazol-4-yl]methyl]-2-(trifluoromethyl)spiro[6,7-dihydrothieno[3,2-c]pyran-4,4′-piperidine]]",< 0.1
4,"CCc1sc2c(c1Br)[C@]1(CCN(Cc3cn(CCS(C)(=O)=O)nn3)[C@@H](C)C1)OCC2 [Compound 526, (2′S,4R)-3-bromo-2-ethyl-2′-methyl-1′-[[1-(2-methylsulfonylethyl)triazol-4-yl]methyl]spiro[6,7-dihydrothieno[3,2-c]pyran-4,4′-piperidine]]",0.1 to 0.5
5,"[2H]c1c(CC)sc2c1[C@]1(CCN(Cc3cn(CCS(C)(=O)=O)nn3)[C@@H](C)C1)OCC2 [Compound 527, (2′S,4R)-3-deuterio-2-ethyl-2′-methyl-1′-[[1-(2-methylsulfonylethyl)triazol-4-yl]methyl]spiro[6,7-dihydrothieno[3,2-c]pyran-4,4′-piperidine]]",< 0.1
6,C[C@H]1CC2(CCN1Cc1cnn(C)c1)OC(CO)Cc1sc(Cl)cc12 (stereo partly drawn) [Compound 530],< 0.1
7,CC(C)C1Cc2sc(Cl)cc2C2(CCN(Cc3cnn(C)c3)[C@@H](C)C2)O1 (stereo partly drawn) [Compound 532],0.1 to 0.5
8,CCC1Cc2sc(Cl)cc2C2(CCN(Cc3cnn(C)c3)[C@@H](C)C2)O1 (stereo partly drawn) [Compound 533],0.5 to 1
9,"CC1CO[C@@]2(CCN(Cc3cn(CCS(C)(=O)=O)nn3)[C@@H](C)C2)c2cc(C(F)(F)F)sc21 (stereo partly drawn) [Compound 534, (2S,4R)-2,7′-dimethyl-1-((1-(2-(methylsulfonyl)ethyl)-1H-1,2,3-triazol-4-yl)methyl)-2′-(trifluoromethyl)-6′,7′-dihydrospiro[piperidine-4,4′-thieno[3,2-c]pyran]]",< 0.1
10,CCc1cc2c(s1)C(C)COC21CCN(Cc2cn(CCS(C)(=O)=O)nn2)[C@@H](C)C1 (stereo partly drawn) [Compound 535],< 0.1
11,CC1COC2(CCN(Cc3cn(CCS(C)(=O)=O)nn3)[C@@H](C)C2)c2cc(Cl)sc21 (stereo partly drawn) [Compound 536],< 0.1
12,CCc1cc2c(s1)C(C)COC21CCN(Cc2cn(CCS(C)(=O)=O)nn2)[C@@H](C)C1 (stereo partly drawn) [Compound 537],< 0.1
13,CC1COC2(CCN(Cc3cn(CCS(C)(=O)=O)nn3)[C@@H](C)C2)c2cc(Cl)sc21 (stereo partly drawn) [Compound 540],< 0.1
14,CC1COC2(CCN(Cc3cn(CCS(C)(=O)=O)nn3)[C@@H](C)C2)c2cc(C(F)(F)F)sc21 (stereo partly drawn) [Compound 541],< 0.1
15,"C[C@H]1C[C@@]2(CCN1Cc1cnn(C)c1)OCC(O)c1sc(C(F)(F)F)cc12 (stereo partly drawn) [Compound 542, (2′S,4R)-2′-methyl-1′-[(1-methylpyrazol-4-yl)methyl]-2-(trifluoromethyl)spiro[6,7-dihydrothieno[3,2-c]pyran-4,4′-piperidine]-7-ol]",< 0.1
16,"CC(O)Cn1cc(CN2CC[C@]3(C[C@@H]2C)OCCc2cc(CC(F)F)sc23)nn1 (stereo partly drawn) [Compound 543, 1-[4-[[(2′S, 7R)-2-(2,2-difluoroethyl)-2′-methyl-spiro[4,5-dihydrothieno[2,3-c]pyran-7,4′-piperidine]-1′-yl]methyl]triazol-1-yl]propan-2-ol]",< 0.1
17,C[C@H]1C[C@@]2(CCN1Cc1cn(C(C)(C)CO)nn1)OCCc1cc(CC(F)F)sc12 [Compound 544],0.5 to 1
18,C[C@H]1C[C@@]2(CCN1Cc1cn(CCCS(C)(=O)=O)nn1)OCCc1cc(CC(F)F)sc12 [Compound 545],< 0.1
19,C[C@H]1C[C@@]2(CCN1Cc1cn(CC(C)(CO)CO)nn1)OCCc1cc(CC(F)F)sc12 [Compound 546],< 0.1
20,C[C@H]1C[C@@]2(CCN1Cc1cn(C3CCOCC3)nn1)OCCc1cc(CC(F)F)sc12 [Compound 547],< 0.1
21,C[C@H]1C[C@@]2(CCN1Cc1cn(CC(O)C(C)(C)O)nn1)OCCc1cc(CC(F)F)sc12 (stereo partly drawn) [Compound 548],< 0.1
22,"C[C@H]1C[C@@]2(CCN1C[C@H]1C[C@@H](NS(=O)(=O)CC#N)C1)OCCc1cc(CC(F)F)sc12 [Compound 549, 1-cyano-N-((1R,3s)-3-(((2S,4R)-2′-(2,2-difluoroethyl)-2-methyl-4′,5′-dihydrospiro[piperidine-4,7′-thieno[2,3-c]pyran]-1-yl)methyl)cyclobutyl)methanesulfonamide]",< 0.1
